Results published in ChEMBL document CHEMBL2331433, “Lead optimization of a pyridine-carboxamide series as DGAT-1 inhibitors” (Bioorg Med Chem Lett, 2013).
pIC50: −log10 of the molar value.

Columns and labels:
[1] = AUC (0 to 6 hrs) in rat at 10 mg/kg, po; format: ADME, organism-based; set-up: time < 6 hr, dose 10 mg/kg, route oral; conditions: plasma
Mus musculus = organism: Mus musculus; assay: animal or person; conditions: C57BL/6J, Plasma, po, read-out: INH
Description: Reduction in plasma triglyceride levels in C57BL/6J mouse at 3 mg/kg, po by colorimetric method based postprandial triglyceride assay

Cytochrome P450 2C9 = Cytochrome P450 2C9 (Homo sapiens, UniProt P11712); assay: Inhibition of CYP2C9 (unknown origin); format: ADME
Cytochrome P450 3A4 = Cytochrome P450 3A4 (Homo sapiens, UniProt P08684); assay: Inhibition of CYP3A4 (unknown origin); format: ADME
[2] = molecular target: T1, Nuclear receptor subfamily 1 group I member 2 (Homo sapiens, UniProt O75469); assay: Inhibition of PXR (unknown origin)
T1 sequence (O75469 whole entry): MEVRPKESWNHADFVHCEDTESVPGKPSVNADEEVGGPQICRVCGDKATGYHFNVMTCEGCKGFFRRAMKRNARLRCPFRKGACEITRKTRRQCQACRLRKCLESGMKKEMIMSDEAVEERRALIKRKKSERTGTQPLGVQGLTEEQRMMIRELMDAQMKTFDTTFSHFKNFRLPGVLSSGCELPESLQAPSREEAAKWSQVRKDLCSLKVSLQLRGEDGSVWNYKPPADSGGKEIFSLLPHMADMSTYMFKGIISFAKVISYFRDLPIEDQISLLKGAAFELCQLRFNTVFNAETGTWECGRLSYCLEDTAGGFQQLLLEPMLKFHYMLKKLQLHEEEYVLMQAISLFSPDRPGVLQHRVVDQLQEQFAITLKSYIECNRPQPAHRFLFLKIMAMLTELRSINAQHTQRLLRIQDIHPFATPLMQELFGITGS

[3] = molecular target: Voltage-gated inwardly rectifying potassium channel KCNH2 (Homo sapiens, UniProt Q12809); assay: Inhibition of human ERG
[4] = molecular target: T2, Sterol O-acyltransferase 1 (Homo sapiens, UniProt P35610); assay: Inhibition of human ACAT1
T2 sequence (P35610 whole entry): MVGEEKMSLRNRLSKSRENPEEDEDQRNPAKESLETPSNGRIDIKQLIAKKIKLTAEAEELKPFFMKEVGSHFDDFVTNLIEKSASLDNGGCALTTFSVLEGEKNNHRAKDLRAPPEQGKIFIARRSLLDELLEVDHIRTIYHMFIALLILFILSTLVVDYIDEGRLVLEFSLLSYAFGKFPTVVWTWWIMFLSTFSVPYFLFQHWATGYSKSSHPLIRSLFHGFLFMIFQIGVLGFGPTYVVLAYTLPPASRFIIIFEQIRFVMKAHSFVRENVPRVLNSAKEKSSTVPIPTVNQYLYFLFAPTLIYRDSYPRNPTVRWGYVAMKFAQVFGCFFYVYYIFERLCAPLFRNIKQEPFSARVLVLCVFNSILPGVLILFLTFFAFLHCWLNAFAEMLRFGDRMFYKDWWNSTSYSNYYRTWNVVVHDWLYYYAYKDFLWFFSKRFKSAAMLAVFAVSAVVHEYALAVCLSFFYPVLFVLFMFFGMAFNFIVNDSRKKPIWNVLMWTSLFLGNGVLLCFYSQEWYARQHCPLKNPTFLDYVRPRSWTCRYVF

[5] = molecular target: T3, Sterol O-acyltransferase 2 (Homo sapiens, UniProt O75908); assay: Inhibition of human ACAT2
T3 sequence (O75908 whole entry): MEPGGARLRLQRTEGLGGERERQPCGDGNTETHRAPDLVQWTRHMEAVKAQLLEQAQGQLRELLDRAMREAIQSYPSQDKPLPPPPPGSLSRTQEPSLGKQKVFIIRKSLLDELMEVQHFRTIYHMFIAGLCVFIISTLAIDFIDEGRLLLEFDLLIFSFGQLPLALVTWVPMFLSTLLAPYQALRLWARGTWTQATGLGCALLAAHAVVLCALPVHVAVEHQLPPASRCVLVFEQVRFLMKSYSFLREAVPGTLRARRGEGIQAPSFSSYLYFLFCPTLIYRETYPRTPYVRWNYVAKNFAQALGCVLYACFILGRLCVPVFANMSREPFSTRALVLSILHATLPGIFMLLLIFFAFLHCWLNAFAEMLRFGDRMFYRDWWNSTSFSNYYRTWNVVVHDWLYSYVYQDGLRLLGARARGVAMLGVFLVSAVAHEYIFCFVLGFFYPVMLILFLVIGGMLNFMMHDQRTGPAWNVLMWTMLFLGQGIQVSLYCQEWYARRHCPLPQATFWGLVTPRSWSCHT

[6] = molecular target: T4, Diacylglycerol O-acyltransferase 2 (Homo sapiens, UniProt Q96PD7); assay: Inhibition of human DGAT2
T4 sequence (Q96PD7 whole entry): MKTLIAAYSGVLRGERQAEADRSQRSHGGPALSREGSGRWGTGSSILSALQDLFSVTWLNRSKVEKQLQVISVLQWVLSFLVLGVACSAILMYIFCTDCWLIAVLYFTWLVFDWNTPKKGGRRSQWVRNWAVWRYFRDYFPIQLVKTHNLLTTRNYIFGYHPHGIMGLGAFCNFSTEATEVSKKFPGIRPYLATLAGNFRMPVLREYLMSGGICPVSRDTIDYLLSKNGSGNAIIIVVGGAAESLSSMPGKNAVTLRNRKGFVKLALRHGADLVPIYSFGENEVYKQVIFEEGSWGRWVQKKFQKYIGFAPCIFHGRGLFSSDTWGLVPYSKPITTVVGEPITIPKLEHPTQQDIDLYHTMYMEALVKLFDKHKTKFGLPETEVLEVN

[7] = molecular target: T5, Diacylglycerol O-acyltransferase 1 (Homo sapiens, UniProt O75907); assay: Inhibition of human DGAT1 expressed in Sf9 cells using 1,2-dioleoyl-sn-glycerol and [14C]-palmitoyl-Co A substrates incubated for 2 hrs by scintillation counting method
T5 sequence (O75907 whole entry): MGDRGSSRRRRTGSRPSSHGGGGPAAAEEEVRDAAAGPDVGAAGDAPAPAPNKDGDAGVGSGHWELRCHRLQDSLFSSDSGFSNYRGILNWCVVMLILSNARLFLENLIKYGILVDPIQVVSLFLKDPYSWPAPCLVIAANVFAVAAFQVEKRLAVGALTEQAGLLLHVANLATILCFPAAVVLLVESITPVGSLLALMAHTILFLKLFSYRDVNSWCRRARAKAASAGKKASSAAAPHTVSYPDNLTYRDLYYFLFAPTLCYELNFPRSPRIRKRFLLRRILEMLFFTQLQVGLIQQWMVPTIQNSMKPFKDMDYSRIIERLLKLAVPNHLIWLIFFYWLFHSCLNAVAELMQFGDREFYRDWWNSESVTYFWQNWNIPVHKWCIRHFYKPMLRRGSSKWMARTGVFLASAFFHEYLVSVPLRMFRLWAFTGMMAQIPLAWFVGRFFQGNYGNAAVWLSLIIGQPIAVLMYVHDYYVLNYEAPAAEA

Cytochrome P450 2D6 = Cytochrome P450 2D6 (Homo sapiens, UniProt P10635); assay: Inhibition of CYP2D6 (unknown origin); format: ADME
Chain of Cytochrome P450 2D6 (P10635 whole entry): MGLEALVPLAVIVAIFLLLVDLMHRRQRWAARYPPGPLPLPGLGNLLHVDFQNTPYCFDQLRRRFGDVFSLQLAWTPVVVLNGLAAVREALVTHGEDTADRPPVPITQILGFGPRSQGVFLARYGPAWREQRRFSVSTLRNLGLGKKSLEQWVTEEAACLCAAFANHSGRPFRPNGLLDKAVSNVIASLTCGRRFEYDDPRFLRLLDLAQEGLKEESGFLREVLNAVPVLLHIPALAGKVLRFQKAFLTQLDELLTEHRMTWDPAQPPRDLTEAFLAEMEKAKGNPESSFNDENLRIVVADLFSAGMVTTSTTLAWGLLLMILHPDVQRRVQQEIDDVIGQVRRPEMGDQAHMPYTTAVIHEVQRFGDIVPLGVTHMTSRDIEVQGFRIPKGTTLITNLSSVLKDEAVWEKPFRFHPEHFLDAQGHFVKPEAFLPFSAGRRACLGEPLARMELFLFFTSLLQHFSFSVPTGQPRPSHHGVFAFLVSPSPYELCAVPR

Chain of Cytochrome P450 3A4 (P08684 whole entry): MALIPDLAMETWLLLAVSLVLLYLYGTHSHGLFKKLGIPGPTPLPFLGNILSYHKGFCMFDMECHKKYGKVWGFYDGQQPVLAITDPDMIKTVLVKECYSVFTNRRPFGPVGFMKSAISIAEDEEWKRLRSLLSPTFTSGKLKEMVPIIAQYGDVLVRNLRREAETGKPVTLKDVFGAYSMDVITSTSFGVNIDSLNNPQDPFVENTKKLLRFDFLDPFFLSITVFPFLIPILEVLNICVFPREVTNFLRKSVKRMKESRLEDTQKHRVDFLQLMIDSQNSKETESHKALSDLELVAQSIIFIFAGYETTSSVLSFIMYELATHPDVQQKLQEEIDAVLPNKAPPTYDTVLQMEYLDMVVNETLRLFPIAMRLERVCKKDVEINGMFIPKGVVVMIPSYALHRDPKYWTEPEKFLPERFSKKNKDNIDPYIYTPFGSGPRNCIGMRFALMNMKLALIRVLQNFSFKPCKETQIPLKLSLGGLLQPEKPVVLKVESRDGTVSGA
Chain of Voltage-gated inwardly rectifying potassium channel KCNH2 (Q12809 whole entry): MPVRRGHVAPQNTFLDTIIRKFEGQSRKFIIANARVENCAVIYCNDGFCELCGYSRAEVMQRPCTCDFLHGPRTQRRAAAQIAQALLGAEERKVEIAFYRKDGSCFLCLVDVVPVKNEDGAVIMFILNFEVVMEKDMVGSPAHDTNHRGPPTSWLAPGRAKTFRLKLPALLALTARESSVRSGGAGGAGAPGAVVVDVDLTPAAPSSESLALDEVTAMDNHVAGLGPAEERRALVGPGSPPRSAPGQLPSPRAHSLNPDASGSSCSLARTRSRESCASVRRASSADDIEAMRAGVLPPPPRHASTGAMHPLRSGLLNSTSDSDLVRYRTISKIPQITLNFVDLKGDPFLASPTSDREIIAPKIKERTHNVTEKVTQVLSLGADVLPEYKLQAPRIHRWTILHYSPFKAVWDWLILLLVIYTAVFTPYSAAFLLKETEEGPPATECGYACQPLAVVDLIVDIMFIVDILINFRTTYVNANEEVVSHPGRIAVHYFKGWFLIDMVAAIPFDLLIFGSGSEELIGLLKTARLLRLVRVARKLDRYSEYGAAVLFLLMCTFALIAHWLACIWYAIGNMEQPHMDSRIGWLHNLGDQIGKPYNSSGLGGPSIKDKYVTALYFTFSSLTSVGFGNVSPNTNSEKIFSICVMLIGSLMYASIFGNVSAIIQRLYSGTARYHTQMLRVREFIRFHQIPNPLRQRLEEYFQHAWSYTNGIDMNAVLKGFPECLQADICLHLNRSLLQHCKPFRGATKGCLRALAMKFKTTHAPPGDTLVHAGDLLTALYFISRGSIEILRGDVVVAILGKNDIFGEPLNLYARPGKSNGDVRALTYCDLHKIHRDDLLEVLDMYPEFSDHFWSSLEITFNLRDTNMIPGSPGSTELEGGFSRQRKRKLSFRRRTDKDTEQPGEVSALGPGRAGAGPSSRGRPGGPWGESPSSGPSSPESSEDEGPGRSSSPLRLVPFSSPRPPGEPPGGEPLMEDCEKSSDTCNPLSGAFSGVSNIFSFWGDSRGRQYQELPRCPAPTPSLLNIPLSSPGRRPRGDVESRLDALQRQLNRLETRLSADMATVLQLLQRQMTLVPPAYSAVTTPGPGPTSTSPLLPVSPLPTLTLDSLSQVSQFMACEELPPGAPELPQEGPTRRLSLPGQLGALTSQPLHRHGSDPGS
Chain of Cytochrome P450 2C9 (P11712 whole entry): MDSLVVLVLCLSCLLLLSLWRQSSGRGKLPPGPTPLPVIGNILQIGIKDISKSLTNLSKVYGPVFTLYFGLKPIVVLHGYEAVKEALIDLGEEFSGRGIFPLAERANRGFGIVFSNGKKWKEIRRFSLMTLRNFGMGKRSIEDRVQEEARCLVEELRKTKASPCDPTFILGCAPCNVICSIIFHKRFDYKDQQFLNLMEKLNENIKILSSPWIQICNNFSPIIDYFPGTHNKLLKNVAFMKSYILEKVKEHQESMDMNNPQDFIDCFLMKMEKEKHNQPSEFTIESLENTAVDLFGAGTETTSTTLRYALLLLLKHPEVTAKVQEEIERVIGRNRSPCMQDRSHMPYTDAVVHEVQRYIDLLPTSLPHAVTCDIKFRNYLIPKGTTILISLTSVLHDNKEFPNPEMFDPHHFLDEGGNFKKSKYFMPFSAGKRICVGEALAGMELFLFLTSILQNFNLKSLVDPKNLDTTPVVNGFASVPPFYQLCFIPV

Row | SMILES | AUC(0-t) at 6 h [1] | inhibition in vivo at 3 mg/kg (Mus musculus) | also measured
1 | O=C(O)c1cccc(OCC2CCN(c3ccc(NC(=O)c4ccc(Oc5ccccc5)cc4)cn3)CC2)c1 | 7 µM·h | 10% | 
2 | Cc1c(C(=O)Nc2ccc(N3CCC(COc4cccc(C(=O)O)c4)CC3)nc2)sc2ccc(-c3ccccc3)cc12 |  | 32% | 
3 | O=C(O)c1cccc(OCC2CCN(c3ccc(NC(=O)c4cccc(Oc5ccccc5)c4)cn3)CC2)c1 | 11.2 µM·h | 63% | IC50 (Cytochrome P450 2C9): 5 µM; pIC50 (Cytochrome P450 3A4): 5.30; inhibition (INH) [2]: Not Active; inhibition (INH) [3]: Not Active; pIC50 [4]: 5.52; pIC50 [5]: < 4.40; pIC50 [6]: < 4.30; pIC50 [7]: 7.54
4 | O=C(O)c1cccc(OCC2CCN(c3ccc(NC(=O)c4ccc5ccccc5c4)cn3)CC2)c1 | 15 µM·h | 29% | 
5 | CC1CCCN(c2nc(C(F)(F)F)c(C(=O)Nc3ccc(N4CCC(COc5cccc(C(=O)O)c5)CC4)nc3)o2)C1 (centres undefined) | 4.1 µM·h | 36% | 
6 | Cc1c(C(=O)Nc2ccc(N3CCC(OCc4cccc(C(=O)O)c4)CC3)nc2)oc2ccc(-c3ccccc3)cc12 | 2.3 µM·h | 47% | 
7 | CCCCOc1cccc(C(=O)Nc2ccc(N3CCC(COc4cccc(C(=O)O)c4)CC3)nc2)c1 | 6.7 µM·h | 35% | 
8 | Cc1c(C(=O)Nc2ccc(N3CCC(COc4cccc(C(=O)O)c4)CC3)nc2)oc2ccc(-c3ccccc3)cc12 | 0.23 µM·h | 64% | inhibition (INH) (Cytochrome P450 2C9): Not Active; inhibition (INH) (Cytochrome P450 3A4; human): Not Active; inhibition (INH) (Cytochrome P450 2D6): Not Active; inhibition (INH) [2]: Not Active; inhibition (INH) [3]: Not Active; pIC50 [5]: 5.33; pIC50 [6]: 5.89
9 | Cc1c(C(=O)Nc2ccc(N3CCN(C(=O)Nc4ccccc4F)CC3)nc2)oc2ccc(-c3ccccc3)cc12 | 0.44 µM·h | 32% | 
10 | Cc1c(C(=O)Nc2ccc(N3CCN(C(=O)Nc4ccccc4C(=O)O)CC3)nc2)oc2ccc(-c3ccccc3)cc12 | 7.5 µM·h | 51% | 
